Source: US20260014144A1, “USE OF OV[…] PHARMACEUTICAL COMPOSITION THEREOF IN PREVENTION AND TREATMENT OF RENAL FIBROSIS” (ZHUJIANG HOSPITAL OF SOUTHERN MEDICAL UNIVERSITY, priority 2022, published 2026)
Where a name gives a salt, the structure may show the parent alone.

How the values were obtained:
[1] = system: unilateral ureteral obstruction (UUO) RF animal model; test: Therapeutic effect of ACT004 in unilateral ureteral obstruction (UUO) renal fibrosis mouse model; assay type: in vivo; conditions: UUO mice
Procedure: (§1) Sixty 8-week-old C57 mice (SPF grade) were supplied by the Laboratory Animal Center of Zhujiang Hospital, Southern Medical University, Guangzhou. Before the experiment, the animals were acclimated to the indoor environment for 7 days at a room temperature of 18-22° C. and a relative humidity of 65%. All mice had free access to water and were fed with regular feed (protein content: 3.14 mg/g).
Method for constructing UUO model: Under anesthesia with intraperitoneal injection of tribromoethanol, the surgical area for abdominal midline incision was shaved and disinfected. After making the abdominal midline incision, the left ureter was located, and the upper segment of the ureter was isolated. A complete ureteral obstruction was induced by double ligation using 4-0 silk sutures (UUO group). For mice in the sham group, the ureter was similarly exposed and isolated, but no ligation was performed. Layered suturing of the abdominal incision was performed, followed by disinfection with iodophor. Mice subjected to UUO surgery were randomly divided into the following 5 groups: a UUO group, a UUO+low-dose ACT004 (12.5 mg/kg·d) group, a UUO+medium-dose ACT004 (25 mg/kg·d) group, a UUO+high-dose ACT004 (50 mg/kg·d) group, and a sham group, with 6 mice in each group. Starting from day 4 after the surgery, intragastric administration was performed. The sham group and the UUO groups were given an equal volume of normal saline as a control treatment. On day 11 after the surgery, the left kidney tissues were collected.
(§2) According to the results of the preliminary experiment, the medium dose of ACT004 for mice was 25 mg/kg·d. Therefore, low-dose (12.5 mg/kg·d), medium-dose (25 mg/kg·d) and high-dose (50 mg/kg·d) groups were set. ACT004 was prepared into a solution using normal saline, and intragastrically administered once daily starting on day 4 after the surgery for a duration of 1 week. Mice in the sham, UUO and IRI groups were subjected to intragastric administration with an equal amount of normal saline for a duration of 1 week.
(§3) After 1 week of intragastric administration, kidney tissues were collected as follows: Anesthesia was conducted using single intraperitoneal injection of tribromoethanol at a concentration of 200 mg/kg. Blood was collected by enucleation, and serum was separated and stored at −20° C. or −70° C. An abdominal incision was made, and sterile gauze was used to move aside abdominal organs. Cold PBS was perfused through the heart until the organs turned white. Kidney tissues were then collected. The entire left kidney was weighed, then bisected along the median sagittal plane, and washed thoroughly with PBS, and the capsule was removed. The tissue was then fixed in 10% neutral formaldehyde buffer for subsequent pathological examination.
(§4) 2.2.1.4.1 Renal pathology: Masson staining was used to observe the renal pathological structures and collagen fiber deposition.
(§5) 2.2.1.4.2 Protein level detection: Ras GTPase superfamily member RALB, EMT-related index a-SMA, and fibrosis phenotype-related indexes Fibronectin and Collagen I.

[2] = system: renal tubular epithelial cells (NRK); test: Effect of ACT004 on TGF-β1-induced EMT in renal tubular epithelial cells; assay type: cell-based, mouse
Procedure: The immortalized mouse-derived renal tubular epithelial cell line was provided by the Professor Nie Xiaoli's research team at the School of Traditional Chinese Medicine, Southern Medical University.
The addition of TGF-β1 was accompanied by the administration of different concentrations of ACT004 intervention (2.5 μM, 5 μM, and 10 μM). The cells were divided into the following 6 groups: a blank control group, a blank control+ACT004 (5 μM) group, a TGF-β1 model group, and groups for TGF-β1+ different concentrations of ACT004 intervention (2.5 μM, 5 μM, and 10 µM).
Protein level detection: Ras GTPase superfamily member RALB, EMT-related index α-SMA, and fibrosis phenotype-related indexes Fibronectin and Collagen I.

[3] = system: ischemia-reperfusion injury (IRI) RF animal model; test: Therapeutic effect of ACT004 in ischemia-reperfusion injury (IRI) renal fibrosis mouse model; assay type: in vivo; conditions: IRI mice
Procedure: as §1
Method for constructing IRI model: Mice were anesthetized intraperitoneally with tribromoethanol. An abdominal midline incision or dorsal incision was made. The left renal vein was isolated, while the renal artery was clamped using an arterial clip. The mice were placed on a constant-temperature pad at 37.5° C. for 30 min, and the incision was covered with PBS-moistened gauze. After 30 min, the arterial clip was released, and the abdomen was closed after the recovery of renal congestion was observed. Mice subjected to IRI surgery were randomly divided into the following 5 groups: an IRI group, an IRI+low-dose ACT004 (12.5 mg/kg·d) group, an IRI+medium-dose ACT004 (25 mg/kg·d) group, an IRI+high-dose ACT004 (50 mg/kg·d) group, and a sham group, with 6 mice in each group. Starting from day 4 after the surgery, intragastric administration was performed. The sham group and the IRI groups were given an equal volume of normal saline as a control treatment. On day 10 after the surgery, the right kidney was removed, and on day 11 day after the surgery, the left kidney tissues were collected.
as §2, §3, §4, §5

[4] = ACT004 12.5, 25, 50 mg/kg·d intragastric once daily from day 4 for 1 week, left kidney day 11, FIG. 1A
[5] = ACT004 intragastric 1 week, FIG. 1B
[6] = ACT004 intragastric 1 week, FIG. 1C, statistically significant (p<0.05)
[7] = ACT004 treatment groups, FIG. 3A

C/C1=C\[C@H]2OC(=O)[C@H](CN3CCN(C)CC3)[C@@H]2CC[C@]2(C)O[C@H]2CCC2=C[C@H](C1)OC2=O [ACT004, (1aS,4Z,7S,9E,10aS,13S,13aS,15aS)-9,15a-dimethyl-13-((4-methylpiperazin-1-yl)methyl)-1a,2,3,8,10a,13,13a,14,15,15a-decahydro-5H-4,7-(metheno) furo [2,3-f]oxireno [2,3-j][1]oxacyclopentadecine-5, 12 (7H)-dione fumarate]
Masson staining: renal interstitial expansion, extracellular matrix deposition, increased collagen fibers, inflammatory cell infiltration [1, 4]: significantly reduced
Immunohistochemical staining: expression of Fibronectin, Collagen I, and α-SMA in kidney tissue [1, 5]: inhibitory effect
Western blot: protein expression levels of Fibronectin, Collagen I, and α-SMA in kidney tissue [1, 6]: inhibit the progression of RF
Western blot: expression levels of p-Smad2, p-Smad3, p-Stat3, and p-NFκB in kidney tissues ([1]; ACT004 treatment groups, FIG. 2A): significantly reduced
Western blot: expression level of RALB in kidney tissues [1, 7]: significantly reduced
Western blot: protein expression levels of Fibronectin, Collagen I, and α-SMA in TGFβ1-induced renal tubular epithelial cells ([2]; TGF-β1 10 ng/uL, 48 h, ACT004 2.5, 5, 10 μM, FIG. 1D, statistically significant (p<0.05)): inhibit the progression of RF
Western blot: expression levels of p-Smad2, p-Smad3, p-Stat3, and p-NFκB in renal tubular epithelial cells induced by TGF-β1 ([2]; different concentrations of ACT004, TGF-β1 induction for 1 h, FIG. 2C, statistically significant): reduced
Masson staining: renal interstitial expansion, extracellular matrix deposition, increased collagen fibers, inflammatory cell infiltration [3, 4]: significantly reduced
Immunohistochemical staining: expression of Fibronectin, Collagen I, and α-SMA in kidney tissue [3, 5]: inhibitory effect
Western blot: protein expression levels of Fibronectin, Collagen I, and α-SMA in kidney tissue [3, 6]: inhibit the progression of RF
Western blot: expression levels of p-Smad2, p-Smad3, p-Stat3, and p-NFκB in kidney tissues ([3]; ACT004 treatment groups, FIG. 2B): significantly reduced
Western blot: expression level of RALB in kidney tissues [3, 7]: significantly reduced
